Measurements reported in US20250066328A1, “PARP7 INHIBITORS” (Gilead Sciences, Inc., priority 2023, published 2025).

tested on: STAT1 (phosphorylated at Tyr701) in NCI-H1373 cells; test: Phospho-STAT1 (Tyr701) LANCE Ultra TR-FRET detection assay in NCI-H1373 cells; assay type: cell-based; settings: Homo sapiens, NCI-H1373, 48 h, 48 hours incubation, induction of pSTAT1, normalized to 10 uM positive control and DMSO, 4-parameter fit, read-out: NH1373 pSTAT1 EC50
Method: Phospho-STAT1 (Tyr701 LANCE Ultra TR-FRET Detection Assay
LANCE Ultra phospho-STAT1 (Tyr701) kits are designed for the detection of phosphorylated STAT1 in cell lysates using a simple, homogeneous LANCE Ultra sandwich assay (Cat. #TRF4028M). This assay is intended for assessing compound induction of endogenous levels of cellular STAT1 (phosphorylated at Tyr701) in NCI-H1373 cells. The NCI-H1373 cells are cultured in RPMI 1640 media containing 10% heat inactivated FBS, GlutaMAX, 1% Penicillin-Streptomycin. An Echo acoustic liquid handler is used to transfer 60 nanoliters of compound dilutions using the Echo Qualified, 384-well polypropylene microplate clear flat bottom source plates into a Greiner (#781080) cell culture microplate. NCI-H1373 cells are seeded into these compound-spotted culture plates at 30,000 cells/well in a 60 uL volume in growth media. The plates are incubated in a 5% CO2 humidified incubator at 37° C. for 48 hours. […] Briefly, […] of supplemented lysis buffer is added to each well and allowed to shake for 1 hour at 400 rpm. Next, 5 ul of remixed antibody solutions (vol/vol) prepared in detection buffer are added to each well and allowed to incubate at room temperature overnight. After spinning the plate down at 300 rpm for 1 min, the plate is read on an EnVision plate reader set up for Eu^3+ Cryptate and fluorescence emission is measured at two different wavelengths (665 nm and 620 nm). The HTRF ratio is then calculated ([…]) for each well to determine the amount of pSTAT1 in the cell lysate, and the data is then normalized to 10 uM (S)-5-((1-(3-oxo-3-(4-(5-(trifluoromethyl)pyrimidin-2-yl)piperazin-1-yl)propoxy)propan-2-yl)amino)-4-(trifluoromethyl)pyridazin-3(2H)-one positive and DMSO negative controls. The values were then plotted as a function of compound concentration and a 4-parameter fit was applied to derive the EC50 values.

| Compound | EC50 [nM] |
| --- | --- |
| COc1cnc(-c2cc3c(F)cn(C[C@H](F)C[C@H](C)Nc4cn[nH]c(=O)c4C(F)(F)F)c(=O)c3cc2F)nc1 [Example 25] | 1.01 |
| C[C@@H](C[C@@H](F)Cn1cc(F)c2cc(-c3ncc(C(C)(C)O)cn3)c(F)cc2c1=O)Nc1cn[nH]c(=O)c1C(F)(F)F [Example 26] | 3.84 |
| [2H]C([2H])([2H])Oc1cnc(-c2cc3ccn(C[C@H](F)C[C@H](C)Nc4cn[nH]c(=O)c4C(F)(F)F)c(=O)c3cc2F)nc1 [Example 27] | 1.05 |
| C[C@@H](C[C@@H](F)Cn1ccc2cc(-c3ncc(C(C)(C)O)cn3)c(F)c(F)c2c1=O)Nc1cn[nH]c(=O)c1C(F)(F)F [Example 28] | 6.51 |
| C[C@@H](C[C@@H](F)Cn1cc(F)c2cc(-c3ncc(C(F)F)cn3)c(F)cc2c1=O)Nc1cn[nH]c(=O)c1C(F)(F)F [Example 29] | 1.86 |
| C[C@@H](C[C@@H](F)Cn1cc(F)c2cc(-c3ncc(C(F)(F)F)cn3)c(F)cc2c1=O)Nc1cn[nH]c(=O)c1C(F)(F)F [Example 30] | 1.54 |
| C[C@@H](C[C@@H](F)Cn1ccc2cc(-c3ncc(C(F)(F)F)cn3)c(F)c(F)c2c1=O)Nc1cn[nH]c(=O)c1C(F)(F)F [Example 32] | 0.912 |
| CC(C)(O)c1cnc(-c2cc3ccn(CCCC(COC(F)F)Oc4cn[nH]c(=O)c4C(F)(F)F)c(=O)c3cc2F)nc1 (stereo not shown) [Example 33, 2-(5-(difluoromethoxy)-4-((6-oxo-5-(trifluoromethyl)-1,6-dihydropyridazin-4-yl)oxy)pentyl)-7-fluoro-6-(5-(2-hydroxypropan-2-yl)pyrimidin-2-yl)isoquinolin-1(2H)-one] | 23.3 |
| C[C@@H](CC(F)Cn1cnc2cc(-c3ncc(C(F)(F)F)cn3)c(F)cc2c1=O)Oc1cn[nH]c(=O)c1C(F)(F)F (stereo partly shown) [Example 36] | 10.8 |
| C[C@@H](CC(F)Cn1ccc2cc(-c3ncc(C(C)(C)O)cn3)c(F)cc2c1=O)Oc1cn[nH]c(=O)c1C(F)(F)F (stereo partly shown) [Example 37] | 4.11 |
| C[C@@H](CC(F)Cn1cnc2cc(-c3ncc(C(C)(C)O)cn3)c(F)cc2c1=O)Oc1cn[nH]c(=O)c1C(F)(F)F (stereo partly shown) [Example 38] | 42.4 |
| C[C@@H](C[C@@H](F)Cn1cnc2cc(-c3ncc(C(F)(F)F)cn3)c(F)cc2c1=O)Oc1cn[nH]c(=O)c1C(F)(F)F [Example 39] | 1.49 |
| COc1cnc(-c2cc3ccn(C[C@H](F)C[C@H](C)Oc4cn[nH]c(=O)c4C(F)(F)F)c(=O)c3cc2F)nc1N [Example 40] | 14.7 |
| C[C@@H](C[C@@H](F)Cn1ccc2cc(-c3ncc(S(C)(=O)=O)cn3)c(F)cc2c1=O)Oc1cn[nH]c(=O)c1C(F)(F)F [Example 41] | 402 |
| C[C@@H](C[C@@H](F)Cn1ccc2cc(-c3ncc(C(F)F)c(N)n3)c(F)c(F)c2c1=O)Oc1cn[nH]c(=O)c1C(F)(F)F [Example 42] | 0.836 |
| COc1cnc(-c2cc3ccn(C[C@H](F)C[C@H](C)Oc4cn[nH]c(=O)c4C(F)(F)F)c(=O)c3c(F)c2F)nc1 [Example 44] | 0.375 |
| COc1cnc(-c2cc3ccn(C[C@H](F)C[C@H](C)Oc4cn[nH]c(=O)c4C(F)(F)F)c(=O)c3cc2F)nc1 [Example 45] | 1.01 |
| C[C@@H](C[C@@H](F)Cn1ccc2cc(-c3ncc(C(C)(F)F)cn3)c(F)c(F)c2c1=O)Oc1cn[nH]c(=O)c1C(F)(F)F [Example 46] | 0.667 |
| C[C@@H](C[C@@H](F)Cn1ccc2cc(-c3ncc(C(F)(F)F)cn3)c(F)c(F)c2c1=O)Oc1cn[nH]c(=O)c1C(F)(F)F [Example 47] | 0.814 |
| C[C@@H](C[C@@H](F)Cn1ccc2cc(-c3ncc(C(F)F)cn3)c(F)cc2c1=O)Oc1cn[nH]c(=O)c1C(F)(F)F [Example 48] | 1.05 |
| C[C@@H](C[C@@H](F)Cn1ccc2cc(-c3ncc(C(F)F)cn3)c(F)c(F)c2c1=O)Oc1cn[nH]c(=O)c1C(F)(F)F [Example 50] | 0.46 |
| C[C@@H](C[C@@H](F)Cn1cc(F)c2cc(-c3ncc(C(F)F)cn3)c(F)cc2c1=O)Oc1cn[nH]c(=O)c1C(F)(F)F [Example 52] | 67.9 |
| COc1cnc(-c2cc3c(F)cn(C[C@H](F)C[C@H](C)Oc4cn[nH]c(=O)c4C(F)(F)F)c(=O)c3cc2F)nc1 [Example 53] | 202 |
| C[C@@H](C[C@@H](F)Cn1cc(F)c2cc(-c3ncc(C(F)F)c(N)n3)c(F)cc2c1=O)Oc1cn[nH]c(=O)c1C(F)(F)F [Example 54] | 23.7 |
| C[C@@H](C[C@@H](F)Cn1cc(F)c2cc(-c3ncc(C(F)(F)F)cn3)c(F)cc2c1=O)Oc1cn[nH]c(=O)c1C(F)(F)F [Example 55] | 135 |

| Compound | EC50 [nM] |
| --- | --- |
| C[C@@H](C[C@H](F)Cn1cnc2cc(-c3ncc(C(F)(F)F)cn3)c(F)cc2c1=O)Oc1cn[nH]c(=O)c1C(F)(F)F [Example 58] | 35.3 |
| COc1cnc(-c2cc3ccn(C[C@@H](F)C[C@H](C)Oc4cn[nH]c(=O)c4C(F)(F)F)c(=O)c3cc2F)nc1N [Example 59] | 1.21 |
| C[C@@H](C[C@H](F)Cn1ccc2cc(-c3ncc(S(C)(=O)=O)cn3)c(F)cc2c1=O)Oc1cn[nH]c(=O)c1C(F)(F)F [Example 60] | 10.2 |
| C[C@@H](C[C@H](F)Cn1cc(F)c2cc(-c3ncc(C(F)F)cn3)c(F)cc2c1=O)Oc1cn[nH]c(=O)c1C(F)(F)F [Example 62] | 1.69 |
| COc1cnc(-c2cc3c(F)cn(C[C@@H](F)C[C@H](C)Oc4cn[nH]c(=O)c4C(F)(F)F)c(=O)c3cc2F)nc1 [Example 63] | 2.05 |
| C[C@@H](C[C@H](F)Cn1cc(F)c2cc(-c3ncc(C(F)F)c(N)n3)c(F)cc2c1=O)Oc1cn[nH]c(=O)c1C(F)(F)F [Example 64] | 0.42 |
| C[C@@H](C[C@H](F)Cn1cc(F)c2cc(-c3ncc(C(F)(F)F)cn3)c(F)cc2c1=O)Oc1cn[nH]c(=O)c1C(F)(F)F [Example 65] | 2.85 |
| C[C@@H](C[C@H](F)Cn1cc(F)c2cc(-c3ncc(C(C)(C)O)cn3)c(F)cc2c1=O)Oc1cn[nH]c(=O)c1C(F)(F)F [Example 66] | 91.6 |
| COc1cnc(-c2cc3ncn(C[C@@H](F)C[C@H](C)Oc4cn[nH]c(=O)c4C(F)(F)F)c(=O)c3cc2F)nc1 [Example 67] | 3.44 |
| C[C@@H](C[C@@H](F)Cn1cc(Br)c2cc(-c3ncc(C(C)(C)O)cn3)c(F)cc2c1=O)Oc1cn[nH]c(=O)c1C(F)(F)F [Example 68, 4-bromo-7-fluoro-2-((2R,4S)-2-fluoro-4-((6-oxo-5-(trifluoromethyl)-1,6-dihydropyridazin-4-yl)oxy)pentyl)-6-(5-(2-hydroxypropan-2-yl)pyrimidin-2-yl)isoquinolin-1(2H)-one] | 3.7 |
| C[C@@H](C[C@@H](F)Cn1cnc2cc(-c3ncc(C(F)F)c(N)n3)c(F)cc2c1=O)Nc1cn[nH]c(=O)c1C(F)(F)F [Example 69] | 19 |
| C[C@@H](C[C@@H](F)Cn1cnc2cc(-c3ncc(C(F)F)cn3)c(F)cc2c1=O)Nc1cn[nH]c(=O)c1C(F)(F)F [Example 70] | 3.31 |
| C[C@@H](C[C@@H](F)Cn1cnc2cc(-c3ncc(C(F)(F)F)cn3)c(F)cc2c1=O)Nc1cn[nH]c(=O)c1C(F)(F)F [Example 71] | 2.17 |
| C[C@@H](C[C@@H](F)Cn1ccc2cc(-c3cc[nH]n3)c(F)cc2c1=O)Nc1cn[nH]c(=O)c1C(F)(F)F [Example 73] | 136 |
| C[C@@H](C[C@@H](F)Cn1ccc2cc(-c3ccccn3)c(F)cc2c1=O)Nc1cn[nH]c(=O)c1C(F)(F)F [Example 74] | 6.56 |
| C[C@@H](C[C@@H](F)Cn1ccc2cc(-c3ncc(C(F)(F)F)cc3F)c(F)cc2c1=O)Nc1cn[nH]c(=O)c1C(F)(F)F [Example 75] | 4.51 |
| C[C@@H](C[C@@H](F)Cn1ccc2cc(-c3ccc(C(F)(F)F)cn3)c(F)cc2c1=O)Nc1cn[nH]c(=O)c1C(F)(F)F [Example 76] | 2.59 |
| C[C@@H](C[C@@H](F)Cn1ccc2cc(-c3ncc(OC(F)(F)F)cn3)c(F)cc2c1=O)Nc1cn[nH]c(=O)c1C(F)(F)F [Example 77] | 2.5 |
| C[C@@H](C[C@@H](F)Cn1ccc2cc(-c3ncc(OCC#N)cn3)c(F)cc2c1=O)Nc1cn[nH]c(=O)c1C(F)(F)F [Example 78] | 192 |
| C[C@@H](C[C@@H](F)Cn1ccc2cc(-c3ncc(C(O)C(F)(F)F)cn3)c(F)cc2c1=O)Nc1cn[nH]c(=O)c1C(F)(F)F (stereo partly shown) [Example 79] | 5.05 |
| C[C@@H](C[C@@H](F)Cn1ccc2cc(-c3ncc([C@@H](O)C(F)F)cn3)c(F)cc2c1=O)Nc1cn[nH]c(=O)c1C(F)(F)F [Example 80] | 7.89 |
| C[C@@H](C[C@@H](F)Cn1ccc2cc(-c3ncc([C@H](O)C(F)F)cn3)c(F)cc2c1=O)Nc1cn[nH]c(=O)c1C(F)(F)F [Example 81] | 5.83 |
| C[C@@H](C[C@@H](F)Cn1ccc2cc(-c3ncc(OC(F)(F)CO)cn3)c(F)cc2c1=O)Nc1cn[nH]c(=O)c1C(F)(F)F [Example 82] | 2.15 |
| C[C@@H](C[C@@H](F)Cn1ccc2cc(-c3ncc(C(C)(O)C(F)(F)F)cn3)c(F)cc2c1=O)Nc1cn[nH]c(=O)c1C(F)(F)F (stereo partly shown) [Example 84] | 2.79 |
